Laboratory results taken from article PMC6124754, “Characterization of new, efficient Mycobacterium tuberculosis topoisomerase-I inhibitors and their interaction with human ABC multidrug transporters” (PLoS ONE, 2018).
pIC50: −log10 of the molar value. In brackets after ≈: the same amount, converted by molar mass. Entries after “also recorded” stand apart in the source; their conditions may differ. Read-outs that look alike come from different tables or passages of the source.

Experiments:
H37Rv Mtb strain = assay: H37Rv growth inhibition, resazurin reduction microplate assay (REMA); type: cell-based, Mycobacterium tuberculosis; conditions: for MIC90: Mycobacterium tuberculosis, H37RV, read-out: MIC90 of compounds in H37Rv growth test; for Toxicity in H37Rv assay (summary): S6 summary table; for Growth inhibition of H37Rv mycobacteria (in words): tested up to 20 μM
HEK293 cell line = assay: Cytotoxicity, PrestoBlue 72 h, HEK293; type: cell-based, human; conditions: for pIC50: Homo sapiens, HEK293, Non-toxic = not toxic up to 20 μM, read-out: Toxicity in HEK293 cell line, IC50
Protocol: (§1) The toxic effects of the selected MtTopo-I inhibitory Vichem compounds were tested in three cell lines, HFF (human foreskin fibroblast), HEK293 (human embryonic kidney) and A431 (human epidermoid carcinoma) cell lines, obtained from ATCC. Establishment of ABC transporter-expressing A431cell lines was achieved by retroviral transduction of the cells as described previously.
(§2) For cytotoxicity measurements the cells were seeded in a 96-well culture plate at 5,000 cells/well (A431, HEK293) or 6000 cells/well (HFF) and incubated overnight. […] After 72 hours of incubation viability was assessed by PrestoBlue® assay (Invitrogen). IC50 values were obtained by sigmoidal curve fitting in the GraphPad Prism software. All experiments were performed in triplicates and repeated at least in three independent experiments. DMSO, used as solvent of the compounds, had no effect on viability at the applied concentration.

human ABCB1 [1] = molecular target: T1, human ABCB1 (Homo sapiens, UniProt P08183); assay: Cellular transport assay, Calcein-AM uptake in ABCB1-overexpressing PLB cells; type: cell-based; conditions: S6 summary table; further: key: 0: no observed effect; +: effect observed in the assay; In the ATPase assay showing only inhibition, the - sign is applied
T1 sequence (P08183 whole entry): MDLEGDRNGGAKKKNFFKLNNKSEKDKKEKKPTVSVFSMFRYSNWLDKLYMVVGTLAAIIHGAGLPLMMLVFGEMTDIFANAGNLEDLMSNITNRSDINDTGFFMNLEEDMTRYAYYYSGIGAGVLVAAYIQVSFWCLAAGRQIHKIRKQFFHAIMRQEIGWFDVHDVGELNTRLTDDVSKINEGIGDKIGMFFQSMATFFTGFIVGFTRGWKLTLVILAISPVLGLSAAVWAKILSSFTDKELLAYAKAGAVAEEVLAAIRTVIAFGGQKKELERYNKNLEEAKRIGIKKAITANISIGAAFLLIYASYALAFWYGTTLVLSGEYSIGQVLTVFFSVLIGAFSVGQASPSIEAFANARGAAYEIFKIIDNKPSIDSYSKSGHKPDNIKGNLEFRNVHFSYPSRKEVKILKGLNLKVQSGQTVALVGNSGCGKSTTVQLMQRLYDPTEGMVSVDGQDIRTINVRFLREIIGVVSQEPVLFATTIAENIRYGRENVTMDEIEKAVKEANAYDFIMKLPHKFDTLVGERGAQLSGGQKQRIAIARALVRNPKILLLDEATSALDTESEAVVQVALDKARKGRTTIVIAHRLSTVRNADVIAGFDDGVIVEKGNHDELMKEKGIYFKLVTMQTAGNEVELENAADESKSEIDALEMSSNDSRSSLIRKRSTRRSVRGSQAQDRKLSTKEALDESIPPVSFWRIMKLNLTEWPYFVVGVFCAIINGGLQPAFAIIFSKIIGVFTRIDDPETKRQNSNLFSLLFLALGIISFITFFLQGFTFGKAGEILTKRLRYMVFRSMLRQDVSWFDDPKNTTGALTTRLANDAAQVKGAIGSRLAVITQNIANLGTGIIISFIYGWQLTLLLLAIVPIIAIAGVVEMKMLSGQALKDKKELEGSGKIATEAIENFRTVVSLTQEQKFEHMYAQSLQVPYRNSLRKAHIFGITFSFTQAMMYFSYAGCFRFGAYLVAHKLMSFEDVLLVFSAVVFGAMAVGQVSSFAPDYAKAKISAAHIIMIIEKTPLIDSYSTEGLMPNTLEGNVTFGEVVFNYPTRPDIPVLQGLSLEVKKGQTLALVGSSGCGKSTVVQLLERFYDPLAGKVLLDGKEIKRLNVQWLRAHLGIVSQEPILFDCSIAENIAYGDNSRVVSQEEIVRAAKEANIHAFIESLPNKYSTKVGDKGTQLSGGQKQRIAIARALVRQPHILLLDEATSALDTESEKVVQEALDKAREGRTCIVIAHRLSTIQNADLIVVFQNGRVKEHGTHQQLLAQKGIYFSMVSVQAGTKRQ
Protocol: (§3) For cellular transport assays, mammalian PLB (lymphoblastoid) cell lines, overexpressing ABCB1 or ABCG2 were used. The parental PLB cell line was purchased from ATCC, and ABCB1 or ABCG2 overexpressing cell lines were established by using lentiviral vectors for human ABC transporters as described earlier in [29]. The transport assays were carried out in 96-well plates. 1x10^5 cells were incubated in the presence of 0.1 μM Calcein-AM or 1 μM DCV (Dye Cycler Violet) for the ABCB1 and for the ABCG2 assays, respectively. The assay was performed in HPMI medium (NaCl 120 mM, KCl 5 mM, MgCl2 0.4 mM, CaCl2 0.04 mM, HEPES 10 mM, NaHCO3 10 mM, glucose 10 mM, Na2HPO4 5 mM; pH 7.4). Fluorescence of the cells was detected using a Victor X3 plate reader (for Calcein, exc. at 485 nm, em. at 535 nm) or the Enspire 2300 (Perkin Elmer) plate reader (for DCV, exc. at 360 nm, em. at 440 nm). Kinetics of fluorescence intensity changes were analyzed to determine relative inhibition, compared to that of a reference agent, providing full inhibition of the ABC transporter. Two of the Vichem compounds examined (VCC979812 and VCC38977) were not compatible with the DCV uptake assay because of their intrinsic fluorescence, therefore for these two compounds ABCG2 transport inhibition was characterized by following mitoxantrone uptake. Mitoxantrone uptake was measured by flow cytometry (BD FACSCanto at 633 nm) by 20 minutes incubation in the presence of 7.5 μM mitoxantrone. Each compound was measured in at least three independent experiments with three parallels in each case. DMSO, used as a solvent of compounds had no effect in this assay at the applied concentration.

[2] = test system: HFF, HEK293 and A431 cell lines; type: cell-based, human
Protocol: as §1, §2

human ABCG2 [3] = molecular target: T2, human ABCG2 (Homo sapiens, UniProt Q9UNQ0); assay: Cellular transport assay, DCV or mitoxantrone uptake in ABCG2-overexpressing PLB cells; type: cell-based; design: expressed in transfected cells; host or cells: PLB (human lymphoblastoid) cells, lentiviral transduction; conditions: S6 summary table; further: key: 0: no observed effect; +: effect observed in the assay; In the ATPase assay showing only inhibition, the - sign is applied
T2 sequence (Q9UNQ0 1-655): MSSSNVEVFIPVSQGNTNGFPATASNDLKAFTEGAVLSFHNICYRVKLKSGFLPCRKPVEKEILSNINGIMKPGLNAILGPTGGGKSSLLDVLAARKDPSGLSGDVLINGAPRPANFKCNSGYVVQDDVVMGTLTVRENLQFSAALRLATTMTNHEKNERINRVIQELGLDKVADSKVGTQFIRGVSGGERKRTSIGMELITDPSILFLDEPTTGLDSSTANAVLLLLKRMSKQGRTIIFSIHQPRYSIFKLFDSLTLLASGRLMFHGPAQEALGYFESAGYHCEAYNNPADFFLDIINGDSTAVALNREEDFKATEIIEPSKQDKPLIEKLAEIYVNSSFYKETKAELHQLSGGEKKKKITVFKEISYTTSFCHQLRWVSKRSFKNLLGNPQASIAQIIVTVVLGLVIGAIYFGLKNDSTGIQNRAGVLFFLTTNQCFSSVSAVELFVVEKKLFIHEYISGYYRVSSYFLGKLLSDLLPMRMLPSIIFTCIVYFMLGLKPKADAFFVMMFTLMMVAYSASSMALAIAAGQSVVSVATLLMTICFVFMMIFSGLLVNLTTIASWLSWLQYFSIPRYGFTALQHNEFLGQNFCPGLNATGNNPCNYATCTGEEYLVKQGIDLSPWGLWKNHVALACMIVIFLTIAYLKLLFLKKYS
Protocol: as §3

HFF cell line = assay: Cytotoxicity, PrestoBlue 72 h, HFF; type: cell-based, human; conditions: Non-toxic = not toxic up to 20 μM, read-out: Toxicity in HFF cell line, IC50
Protocol: as §1, §2

human ABCB1 [4] = molecular target: T1, human ABCB1; assay: Vanadate-sensitive ATPase activity assay in Sf9 membrane vesicles, ABCB1; type: biochemical; design: made in house; host or cells: Sf9 insect cells (baculovirus), membrane vesicles; ABCB1 ATPase Vmax: unit not given here; conditions: for Effect on ABCB1-ATPase activity (in words): Sf9 membrane vesicles, 0.1–10 μM for the stimulation in b53; for ABCB1 ATPase Vmax: vanadate-sensitive ATPase, from dose-response curves, basal 5.7±0.7; for ABC transporter ATPase assay, ABCB1 (summary): S6 summary table; for ABCB1 ATPase, concentration at Vmax: concentration at which Vmax was seen; on ABC transporter ATPase assay, ABCB1 (summary): key: 0: no observed effect; +: effect observed in the assay; In the ATPase assay showing only inhibition, the - sign is applied
MtTopo-I = molecular target: T3, MtTopo-I (Mycobacterium tuberculosis, UniProt P9WG49); assay: DNA relaxation assay of supercoiled pUC18 DNA by MtTopo-I; type: biochemical; conditions: minimum concentration providing complete inhibition
T3 construct: made in house; host or cells: E. coli
T3 sequence (P9WG49 whole entry): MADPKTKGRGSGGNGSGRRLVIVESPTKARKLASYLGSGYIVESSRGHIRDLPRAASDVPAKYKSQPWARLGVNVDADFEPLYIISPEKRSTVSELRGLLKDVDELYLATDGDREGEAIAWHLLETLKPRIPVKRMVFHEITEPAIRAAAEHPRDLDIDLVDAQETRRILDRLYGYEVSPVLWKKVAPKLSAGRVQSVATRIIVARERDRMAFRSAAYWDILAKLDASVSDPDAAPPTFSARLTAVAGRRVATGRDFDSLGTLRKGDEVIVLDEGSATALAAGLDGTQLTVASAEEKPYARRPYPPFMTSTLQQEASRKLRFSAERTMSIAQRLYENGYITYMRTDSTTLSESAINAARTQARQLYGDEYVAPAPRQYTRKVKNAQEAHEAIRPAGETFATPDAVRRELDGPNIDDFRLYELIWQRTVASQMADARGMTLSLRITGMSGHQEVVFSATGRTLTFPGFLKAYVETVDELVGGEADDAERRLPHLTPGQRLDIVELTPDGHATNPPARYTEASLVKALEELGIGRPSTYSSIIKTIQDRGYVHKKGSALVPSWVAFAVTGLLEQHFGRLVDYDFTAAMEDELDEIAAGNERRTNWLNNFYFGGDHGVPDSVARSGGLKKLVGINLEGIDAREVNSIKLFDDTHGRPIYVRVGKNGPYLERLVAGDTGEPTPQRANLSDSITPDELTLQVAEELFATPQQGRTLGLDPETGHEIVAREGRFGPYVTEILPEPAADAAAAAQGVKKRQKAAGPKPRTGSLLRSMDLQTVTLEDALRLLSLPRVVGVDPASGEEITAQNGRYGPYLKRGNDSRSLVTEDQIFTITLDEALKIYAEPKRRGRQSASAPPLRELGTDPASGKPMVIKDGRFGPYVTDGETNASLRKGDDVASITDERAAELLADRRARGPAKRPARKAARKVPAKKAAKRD

parental A431 cell line = assay: Cytotoxicity, PrestoBlue 72 h, parental A431; type: cell-based, human; conditions: Non-toxic = not toxic up to 20 μM, read-out: Toxicity in parental A431 cell line, IC50
Protocol: as §1, §2

[5] = test system: ABCB1-overexpressing A431 cell line; conditions: 72 h; for Resistance modulation by ABCB1 (fold increase in IC50): ABCB1-expressing versus parental A431 cells; for ABC transporter modified cytotoxicity, ABCB1 (summary): human
[6] = test system: ABCG2-overexpressing A431 cell line; conditions: 72 h; for Resistance modulation by ABCG2 (fold increase in IC50): ABCG2-expressing versus parental A431 cells; for ABC transporter modified cytotoxicity, ABCG2 (summary): human
human ABCG2 [7] = molecular target: T2, human ABCG2; assay: Vanadate-sensitive ATPase activity assay in Sf9 membrane vesicles, ABCG2; type: biochemical; design: made in house; host or cells: Sf9 insect cells (baculovirus), membrane vesicles; ABCG2 ATPase, concentration at Vmax: unit not given here; conditions: for ABC transporter ATPase assay, ABCG2 (summary): S6 summary table; for ABCG2 ATPase Vmax: vanadate-sensitive ATPase, from dose-response curves, basal 22±1.4; for ABCG2 ATPase, concentration at Vmax: concentration at which Vmax was seen
[8] = minimum concentration providing 90% growth inhibition, 20 to 0.04 μM, N.I. = no inhibition observed up to 20 μM

| Structure (SMILES) | MIC90 (H37Rv Mtb strain; [8]) [µM] | Toxicity in H37Rv assay (summary) (H37Rv Mtb strain) | Growth inhibition of H37Rv mycobacteria (in words) (H37Rv Mtb strain) | pIC50 (HEK293 cell line) | ABC transporter transport assay, ABCB1 (summary) (human ABCB1 [1]) | Toxicity in human cell lines (in words) [2] | Toxicity in mammalian cell lines (summary) [2] | ABC transporter transport assay, ABCG2 (summary) (human ABCG2 [3]) | pIC50 (HFF cell line; Homo sapiens, HFF) | pIC50 (HFF cell line) | Effect on ABCB1-ATPase activity (in words) (human ABCB1 [4]) | ABCB1 ATPase Vmax (human ABCB1 [4]) | Complete inhibition of MtTopoI (MtTopo-I) [µM] | pIC50 (parental A431 cell line; Homo sapiens, A-431, 72 h) | pIC50 (parental A431 cell line) | Resistance modulation by ABCB1 (fold increase in IC50) [5] | ABC transporter modified cytotoxicity, ABCB1 (summary) [5] | ABC transporter modified cytotoxicity, ABCG2 (summary) [6] | ABC transporter ATPase assay, ABCG2 (summary) (human ABCG2 [7]) | ABCG2 ATPase Vmax (human ABCG2 [7]) | also measured |
| --- | --- | --- | --- | --- | --- | --- | --- | --- | --- | --- | --- | --- | --- | --- | --- | --- | --- | --- | --- | --- | --- |
| CN(C)CCCNc1nc(/C=C/c2ccc(Cl)cc2)nc2cc3ccccc3cc12 [VCC450822] | 5.1 (≈ 2.13 µg/mL) | + | effectively inhibited the growth | 4.70 to 5.00 | 0 | toxic | + | 0 | > 5.30 | 5.30 to 5.60 | well measurable stimulatory effect; also recorded: slight stimulation of the ABCB1-ATPase activity at lower concentrations; also recorded: strongly inhibited ATPase activity at higher concentrations; also recorded: slightly increased | 10.5±1.5 | 10.0 | > 5.30 | 5.46 | 0.97±0.05 | 0 | 0 | 0 | 23.3±2 | Resistance modulation by ABCB1 (fold increase in IC50) ([5]; listed as VCC480522): no difference; Resistance modulation by ABCG2 (fold increase in IC50) [6]: 1.0±0.03; Resistance modulation by ABCG2 (fold increase in IC50) ([6]; listed as VCC480522): no difference |
| COc1ccc(/C=C/c2nc(NCCCN3CCOCC3)c3cc4ccccc4cc3n2)cc1 [VCC478498] | 0.6 (≈ 0.273 µg/mL) | + | effectively inhibited the growth | 4.70 to 5.00 | + | toxic | + | + | > 5.30 | 5.30 to 5.60 |  | 7.2±1.8 | 10 to 25 | > 5.30 | 5.52 |  | 0 | 0 | - | 21.5±2.4 | ABC transporter ATPase assay, ABCB1 (summary) (human ABCB1 [4]): 0; ABCB1 ATPase, concentration at Vmax (human ABCB1 [4]): 6.25 µM; Effect on ABCG2-ATPase activity (in words) (human ABCG2 [7]; Sf9 membrane vesicles, 0.1–10 μM for stimulation, 50 μM for inhibition): only an inhibition; ABCG2 ATPase, concentration at Vmax (human ABCG2 [7]): 2 |
| CC(C)CCNc1nc2cc3ccccc3cc2nc1NCCC(C)C [VCC979812] |  | 0 |  |  | + |  |  | + | 4.70 |  | well measurable stimulatory effect; also recorded: slightly increased | 15.8±2 | 10 | 4.72 |  | 1.1±0.08 | 0 | 0 | 0 | 22±3 | MIC90 of compounds in H37Rv growth test (H37Rv Mtb strain; [8]): N.I.; Toxicity in HEK293 cell line, IC50 (HEK293 cell line; Non-toxic = not toxic up to 20 μM): Non-toxic; Toxicity in mammalian cell lines (summary) ([2]; human, 72 h): 0/slight; ABC transporter ATPase assay, ABCB1 (summary) (human ABCB1 [4]): +; ABCB1 ATPase, concentration at Vmax (human ABCB1 [4]): 12.5 µM; Resistance modulation by ABCG2 (fold increase in IC50) [6]: 1±0.1; ABCG2 ATPase, concentration at Vmax (human ABCG2 [7]): 0.4 |
